Data as given in the NIST ThermoML archive (doi:10.1016/j.fluid.2005.09.006).
± gives the expanded uncertainty stated by the source.

Details: Liquid

Row | vapor or sublimation pressure (253.15 K) | vapor or sublimation pressure (263.15 K) | vapor or sublimation pressure (273.15 K) | vapor or sublimation pressure (283.15 K) | vapor or sublimation pressure (293.15 K) | vapor or sublimation pressure (303.15 K) | vapor or sublimation pressure (313.15 K) | vapor or sublimation pressure (323.15 K) | SMILES
1 | 1964.8 ± 49 kPa | 2641.8 ± 66 kPa | 3478.5 ± 86 kPa | 4497.8 ± 110 kPa | 5723.7 ± 140 kPa | 7206.2 ± 180 kPa |  |  | O=C=O [carbon dioxide]
2 | 244.2 ± 6.2 kPa | 344.7 ± 8.7 kPa | 473.9 ± 12 kPa | 636.3 ± 16 kPa | 836.3 ± 21 kPa | 1079.6 ± 27 kPa | 1369.8 ± 34 kPa | 1714.5 ± 43 kPa | CCC [propane]
